≈ marks a conversion by molar mass, not a printed value.
Columns and labels:
E. coli (AAC(3)IV) = assay: MIC 50, broth micro-dilution, E. coli expressing AAC(3)IV; type: cell-based, Escherichia coli
Summary of the method: (§1)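 E. coli ATCC 25922 carrying plasmids encoding the named aminoglycoside-modifying enzymes, grown under kanamycin A 50 μg/mL selection and inoculated at OD600 0.1 in MH2 broth. Two-fold compound dilutions (final 64 μM–31.3 nM) in triplicate, 18 h at 37 °C; OD600 read, MIC50 = concentration giving half-maximal growth.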

E. coli (APH(3′)Ia) = assay: MIC 50, broth micro-dilution, E. coli expressing APH(3′)Ia; type: cell-based, Escherichia coli
Summary of the method: as §1

[1] = system: E. coli (AAC(6′)Ie-APH(2″)Ia); assay: MIC 50, broth micro-dilution, E. coli expressing AAC(6′)Ie-APH(2″)Ia; type: cell-based, Escherichia coli
Summary of the method: as §1

E. coli ATCC25922 strain = assay: MIC 50, broth micro-dilution, wild-type Escherichia coli; type: cell-based; conditions: MH2, 18 h
Summary of the method: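 E. coli ATCC 25922, parental or carrying resistance/vector plasmids (plasmid strains selected with 50 μg/mL kanamycin A), inoculated at OD600 0.1 in MH2 broth with two-fold compound dilutions, final 64 μM–31.3 nM, in triplicate. Incubated 18 h, 37° C, shaking. OD600 read; MIC50 = first concentration where growth reached half of maximum.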

[2] = Escherichia coli, ATCC25922, ATCC25922 harboring plasmid encoding AAC(3)IV
[3] = Escherichia coli, ATCC25922, ATCC25922 harboring plasmid encoding APH(3′)Ia
[4] = Escherichia coli, ATCC25922, ATCC25922 harboring plasmid encoding AAC(6′)Ie-APH(2″)Ia
[5] = Escherichia coli, ATCC25922, 18 h
[6] = ATCC25922 harboring plasmid encoding AAC(3)IV
[7] = ATCC25922 harboring plasmid encoding APH(3′)Ia
[8] = ATCC25922 harboring plasmid encoding AAC(6′)Ie-APH(2″)Ia

N=C(NCC1CCCO1)NC1[C@@H](O)C(OC2[C@@H](F)[C@H](O[C@H]3OC(CN)[C@@H](O)CC3N)C(N)C[C@H]2NC(=O)[C@@H](O)CCN)O[C@H](CO)[C@H]1O (some centres unmarked) [ABX5046, Tobra-AHB-F-Gua tetrahydrofuran-2-yl methyl]
MIC50 (E. coli (AAC(3)IV); [2]): 1 to 2 µM (≈ 0.697 to 1.39 µg/mL)
MIC50 (E. coli (APH(3′)Ia); [3]): 1 µM (≈ 0.697 µg/mL)
MIC50 [1, 4]: 0.5 µM (≈ 0.348 µg/mL)
MIC50 (E. coli ATCC25922 strain; [5]): 0.5 µM (≈ 0.348 µg/mL)

N=C(NC[C@H]1CNCCO1)NC1[C@@H](O)C(OC2[C@@H](F)[C@H](O[C@H]3OC(CN)[C@@H](O)CC3N)C(N)C[C@H]2NC(=O)[C@@H](O)CCN)O[C@H](CO)[C@H]1O (stereo partly drawn) [ABX5043, Tobra-AHB-F-Gua (R) morpholin-2-yl methyl]
MIC50 (E. coli (AAC(3)IV); [2]): 1 µM (≈ 0.712 µg/mL)
MIC50 (E. coli (APH(3′)Ia); [3]): 0.5 to 1 µM (≈ 0.356 to 0.712 µg/mL)
MIC50 [1, 4]: 0.25 µM (≈ 0.178 µg/mL)
MIC50 (E. coli ATCC25922 strain; [5]): 0.25 µM (≈ 0.178 µg/mL)

N=C(NC[C@@H]1CCNC1)NC1[C@@H](O)C(OC2[C@@H](F)[C@H](O[C@H]3OC(CN)[C@@H](O)CC3N)C(N)C[C@H]2NC(=O)[C@@H](O)CCN)O[C@H](CO)[C@H]1O (stereo partly drawn) [ABX5039, Tobra-AHB-F-Gua (R) pyrrolidine-3-ylmethyl]
MIC50 (E. coli (AAC(3)IV); [2]): 1 µM (≈ 0.696 µg/mL)
MIC50 (E. coli (APH(3′)Ia); [3]): 0.25 µM (≈ 0.174 µg/mL)
MIC50 [1, 4]: 0.25 µM (≈ 0.174 µg/mL)
MIC50 (E. coli ATCC25922 strain; [5]): 0.25 µM (≈ 0.174 µg/mL)

N=C(N)NC1[C@@H](O)C(OC2[C@@H](O)[C@H](O[C@H]3OC(CN)[C@@H](O)[C@H](O)C3N)C(N)C[C@H]2NC(=O)[C@@H](O)CCN)O[C@H](CO)[C@H]1O (some centres unmarked) [ABX4009, KanaB-AHB-Gua]
MIC50 (E. coli (AAC(3)IV); [6]): 8 µM (≈ 5.01 µg/mL)
MIC50 (E. coli (APH(3′)Ia); [7]): 8 µM (≈ 5.01 µg/mL)
MIC50 [1, 8]: 2 to 4 µM
MIC50 (E. coli ATCC25922 strain): 2 µM (≈ 1.25 µg/mL)

N=C(N)NC1C(O)[C@@H](CO)OC(OC2C(F)[C@H](O[C@H]3OC(CN)[C@@H](O)CC3N)C(N)C[C@H]2NC(=O)[C@@H](O)CCN)[C@@H]1O (some centres unmarked) [ABX5006, Tobra-AHB-F-Gua]
MIC50 (E. coli (AAC(3)IV); [2]): 0.5 to 1 µM (≈ 0.306 to 0.613 µg/mL)
MIC50 (E. coli (APH(3′)Ia); [3]): 0.5 µM (≈ 0.306 µg/mL)
MIC50 [1, 4]: < 0.25 µM
MIC50 (E. coli ATCC25922 strain; [5]): < 0.25 µM

N=C(NCc1cnc[nH]1)NC1[C@@H](O)C(OC2[C@@H](F)[C@H](O[C@H]3OC(CN)[C@@H](O)CC3N)C(N)C[C@H]2NC(=O)[C@@H](O)CCN)O[C@H](CO)[C@H]1O (some centres unmarked) [ABX5050, Tobra-AHB-F-Gua imidazol-5-yl methyl]
MIC50 (E. coli (AAC(3)IV); [2]): 2 to 4 µM (≈ 1.39 to 2.77 µg/mL)
MIC50 (E. coli (APH(3′)Ia); [3]): 2 µM (≈ 1.39 µg/mL)
MIC50 [1, 4]: 1 µM (≈ 0.693 µg/mL)
MIC50 (E. coli ATCC25922 strain; [5]): 1 µM (≈ 0.693 µg/mL)

N=C(NCCCO)NC1[C@@H](O)C(OC2[C@@H](F)[C@H](O[C@H]3OC(CN)[C@@H](O)CC3N)C(N)C[C@H]2NC(=O)[C@@H](O)CCN)O[C@H](CO)[C@H]1O (some centres unmarked) [ABX5041, Tobra-AHB-F-Gua 3-hydroxy-propyl]
MIC50 (E. coli (AAC(3)IV); [2]): 2 µM (≈ 1.34 µg/mL)
MIC50 (E. coli (APH(3′)Ia); [3]): 1 µM (≈ 0.671 µg/mL)
MIC50 [1, 4]: 0.5 µM (≈ 0.335 µg/mL)
MIC50 (E. coli ATCC25922 strain; [5]): 0.5 µM (≈ 0.335 µg/mL)

NCCC(O)C(=O)NC1CC(N)C(OC2OC(CN)C(O)C(O)C2O)C(F)C1OC1OC(CO)C(O)C(N)C1O (stereo not drawn) [ABX3005, 3′Epi-KanaA-AHB-F]
MIC50 (E. coli (AAC(3)IV); [6]): 8 to 16 µM
MIC50 (E. coli (APH(3′)Ia); [7]): 8 to 16 µM
MIC50 [1, 8]: 4 µM (≈ 2.35 µg/mL)
MIC50 (E. coli ATCC25922 strain): 4 µM (≈ 2.35 µg/mL)

N=C(NCCCN)NC1[C@@H](O)C(OC2[C@@H](F)[C@H](O[C@H]3OC(CN)[C@@H](O)CC3N)C(N)C[C@H]2NC(=O)[C@@H](O)CCN)O[C@H](CO)[C@H]1O (some centres unmarked) [ABX5030, Tobra-AHB-F-Gua-3-amino-propyl]
MIC50 (E. coli (AAC(3)IV); [2]): 0.5 µM (≈ 0.335 µg/mL)
MIC50 (E. coli (APH(3′)Ia); [3]): 2 µM (≈ 1.34 µg/mL)
MIC50 [1, 4]: 0.25 to 0.5 µM (≈ 0.167 to 0.335 µg/mL)
MIC50 (E. coli ATCC25922 strain; [5]): 0.25 µM (≈ 0.167 µg/mL)

N=C(NCCO)NC1[C@@H](O)C(OC2[C@@H](F)[C@H](O[C@H]3OC(CN)[C@@H](O)CC3N)C(N)C[C@H]2NC(=O)[C@@H](O)CCN)O[C@H](CO)[C@H]1O (some centres unmarked) [ABX5029, Tobra-AHB-F-Gua 2-hydroxy-ethyl]
MIC50 (E. coli (AAC(3)IV); [2]): 2 µM (≈ 1.31 µg/mL)
MIC50 (E. coli (APH(3′)Ia); [3]): 2 µM (≈ 1.31 µg/mL)
MIC50 [1, 4]: 0.5 to 1 µM (≈ 0.328 to 0.657 µg/mL)
MIC50 (E. coli ATCC25922 strain; [5]): 0.5 µM (≈ 0.328 µg/mL)

N=C(N)NC1[C@@H](O)C(OC2[C@@H](F)[C@H](O[C@H]3OC(CN)[C@@H](O)[C@H](O)C3N)C(N)C[C@H]2NC(=O)[C@@H](O)CCN)O[C@H](CO)[C@H]1O (stereo partly drawn) [ABX4004, 3′epi-KanaB-AHB-F-Gua]
MIC50 (E. coli (AAC(3)IV); [6]): 4 µM (≈ 2.51 µg/mL)
MIC50 (E. coli (APH(3′)Ia); [7]): 4 µM (≈ 2.51 µg/mL)
MIC50 [1, 8]: 2 µM (≈ 1.26 µg/mL)
MIC50 (E. coli ATCC25922 strain): 1 to 2 µM

N=C(N)N[C@@H]1[C@@H](O)[C@@H](O[C@@H]2[C@@H](O)[C@H](O[C@H]3O[C@H](CN)[C@@H](O)[C@@H](O)[C@H]3N)[C@@H](N)C[C@H]2NC(=O)[C@@H](O)CCN)O[C@H](CO)[C@H]1O [ABX4005, 3′Epi-KanaB-AHB-Gua]
MIC50 (E. coli (AAC(3)IV); [6]): 16 µM (≈ 10 µg/mL)
MIC50 (E. coli (APH(3′)Ia); [7]): 16 µM (≈ 10 µg/mL)
MIC50 [1, 8]: 8 µM (≈ 5.01 µg/mL)
MIC50 (E. coli ATCC25922 strain): 4 µM (≈ 2.51 µg/mL)

N=C(NC[C@@H]1CCCN1)NC1[C@@H](O)C(OC2[C@@H](F)[C@H](O[C@H]3OC(CN)[C@@H](O)CC3N)C(N)C[C@H]2NC(=O)[C@@H](O)CCN)O[C@H](CO)[C@H]1O (stereo partly drawn) [ABX5026, Tobra-AHB-F-Gua (S) pyrrolidine-2-yl-methyl]
MIC50 (E. coli (AAC(3)IV); [2]): 0.5 µM (≈ 0.348 µg/mL)
MIC50 (E. coli (APH(3′)Ia); [3]): 1 µM (≈ 0.696 µg/mL)
MIC50 [1, 4]: 0.25 to 0.5 µM (≈ 0.174 to 0.348 µg/mL)
MIC50 (E. coli ATCC25922 strain; [5]): 0.25 µM (≈ 0.174 µg/mL)

NCCC(O)C(=O)NC1CC(N)C(OC2OC(CN)C(O)C(O)C2N)C(O)C1OC1OC(CO)C(O)C(N)C1O (centres unmarked) [ABX4001, KanaB-AHB]
MIC50 (E. coli (AAC(3)IV); [6]): 4 µM (≈ 2.34 µg/mL)
MIC50 (E. coli (APH(3′)Ia); [7]): 8 µM (≈ 4.68 µg/mL)
MIC50 [1, 8]: 4 to 8 µM
MIC50 (E. coli ATCC25922 strain): 2 µM (≈ 1.17 µg/mL)

NCC[C@H](O)C(=O)N[C@@H]1CC(N)[C@@H](O[C@H]2OC(CN)[C@@H](O)[C@@H](O)C2N)[C@H](O)C1OC1O[C@H](CO)[C@@H](O)C(N)[C@H]1O (stereo partly drawn) [ABX4002, 3′Epi-KanaB-AHB]
MIC50 (E. coli (AAC(3)IV); [6]): 8 to 16 µM
MIC50 (E. coli (APH(3′)Ia); [7]): 8 to 16 µM
MIC50 [1, 8]: 4 to 8 µM
MIC50 (E. coli ATCC25922 strain): 8 µM (≈ 4.68 µg/mL)

NCCC(O)C(=O)NC1CC(N)C(OC2OC(CN)C(O)C(O)C2N)C(F)C1OC1OC(CO)C(O)C(N)C1O (centres unmarked) [ABX4007, KanaB-AHB-F]
MIC50 (E. coli (AAC(3)IV); [6]): 4 to 8 µM
MIC50 (E. coli (APH(3′)Ia); [7]): 4 µM (≈ 2.35 µg/mL)
MIC50 [1, 8]: 2 to 4 µM
MIC50 (E. coli ATCC25922 strain): 1 µM (≈ 0.587 µg/mL)

N=C(NCC1CCOC1)NC1[C@@H](O)C(OC2[C@@H](F)[C@H](O[C@H]3OC(CN)[C@@H](O)CC3N)C(N)C[C@H]2NC(=O)[C@@H](O)CCN)O[C@H](CO)[C@H]1O (some centres unmarked) [ABX5051, Tobra-AHB-F-Gua tetrahydrofuran-3-yl methyl]
MIC50 (E. coli (AAC(3)IV); [2]): 2 µM (≈ 1.39 µg/mL)
MIC50 (E. coli (APH(3′)Ia); [3]): 1 µM (≈ 0.697 µg/mL)
MIC50 [1, 4]: 0.5 µM (≈ 0.348 µg/mL)
MIC50 (E. coli ATCC25922 strain; [5]): 0.5 µM (≈ 0.348 µg/mL)

Source: patent US20220127297A1, “Novel Antibacterial 3"-Derivatives Of 4,6-Disubstituted 2,5-Dideoxystreptamine Aminoglycoside Antibiotics” (AGILeBiotics B.V., priority 2018, published 2022)
